# Assay results: US5572996A, “In vivo pharmacokinetics of photosensitive drugs and method” (PDT Systems, Inc., priority 1996, dated 1996)
# Where two headings read alike, the source gives them in different places.
# Key:
# skin cancers [1] = test: In vivo fluorescence kinetics in a human subject with skin cancers (tumor and normal sites); conditions: 0.4 mg/kg SnET2, human subject
# Procedure: (§1) FIG. 1 presents data from an actual human subject injected with SnET2 for the treatment of a number of skin cancers. A number of normal i.e. control sites, and tumor sites were measured prior to the SnET2 injection, (0.4 mg/kg) and at various times post injection. […] In summary, it is clear from the data provided that the method employing the measurement of the intensity of the exogenous chromophore fluorescence to the autofluorescence of a tissue provide a more accurate means for measuring the pharmacokinetics of an exogenous fluorescing chromophore in vivo. The finding is novel and to the inventor's knowledge has not been taught or acknowledged by others either in a patent or publication. Though the method was discovered and developed during the performance of work associated with photodynamic diagnosis and therapy, the utilization of the present method extends to other types of phototherapy. Any application requiring the in vivo monitoring of rate of change of concentration of a fluorescence chromophore in a tissue could use the present method. For example the in vivo pharmacokinetics of fluorescence labeled monoclonal antibodies for diagnostic or therapeutic application, and certain fluorescent antibiotics such as tetracycline, detection of highly proliferating atherosclerosis, among others. […]
# [2] = design: species or system Spraig Dawley Rats; conditions: rat, in vivo, 24 h
# Procedure: (§2) Twenty-four hours prior to measurement the animals were injected either with a control solution, (carrier vehicle), or various concentrations of the exogenous chromophore, tin ethyl etiopurpurin, (SnET2). SnET2 is a synthetic chlorophyll analogue used in photodynamic light therapy (PDT) that has a relatively weak fluorescence emission, (Quantum yield of 0.01), an emission peak at 670 nm, and a maximum absorption/excitation at 440 nm. At measurement time the animals where anesthetized and then surgically opened to allow measurement of the fluorescence in various tissues. The measurement system used had the following characteristics:
# (§3) A small correction can be made for the endogenous autofluorescence by subtracting the control values from the drug containing tissue to give a NET RATIO. This method permits compensation for background tissue difference while permitting accurate and sensitive measurement of the exogenous chromophore presence in the tissue. Chemical extraction of the SnET2 from the tissue allows correlation of the in-vivo drug concentration to the Ratio signal as shown in Table 3 below. Such a correlation would not be accurate or easily done with out using the Ratio concept.
# [3] = design: species or system Spraig Dawley Rats; conditions: rat, in vivo
# Procedure: as §2
# (a) A single fiber was used to deliver excitation light;
# (b) Excitation light was derived from a HeCd laser at 442 nm, […] total power delivered to the tissue;
# (c) The excitation light was delivered to the target tissue by means of a fiber optic. Fluorescent light emitted by both exogenous and endogenous chromophores in the target tissue was conducted back to the measuring instrument by means of a bundle of smaller optical fibers surrounding the fiber delivering excitation light to the target tissue. Some of these fiber where directed to one PMT (photomultiplier tube) detector filtered for a 570 nm endogenous autofluorescence while the others (12 fibers) were coupled to a PMT filtered at 670 nm for detecting the SnET2 emission;
# (d) Autoranging of the gains of the PMTs over five decades;
# (e) A display of the 570 (Autofluorescence), 670 (SnET2),signals and the ratio of the two;
# (f) An internal reference standard for setting the gain of each PMT prior to each use;
# (g) Computer data storage.
# The system operates by a foot paddle or a panel button. Activating either one causes the 23 system to take a reading in 1.6 seconds and store it in the display and computer memory. Prior to each use the illuminating probe excitation output is set to 1 mw but this is not necessary due to the ratioing concept.
# as §3
# skin cancers [4] = test: Photodynamic therapeutic response to red light in a human subject; assay type: in vivo; conditions: 0.4 mg/kg SnET2, human subject
# Procedure: as §1
smiles,measurement,setting,value
"CCOC(=O)C1=Cc2c3nc(cc4nc(cc5[n-]c(cc6[n-]c2c(C)c6CC)c(C)c5CC)C(C)=C4CC)[C@@H](C)[C@]13CC.[Cl-].[Cl-].[Sn] (racemic) [SnET2, tin ethyl etiopurpurin]","drug uptake in tumors versus control/normal sites (Net Ratio, FIG. 3)",skin cancers [1],the tumors take up the drug significantly more than the control/normal sites
same,SnET2 fluorescence at 670 nm with site and time (FIG. 2),skin cancers [1]; unratioed signal,greatly varies with site and time
same,"Extraction (tissue drug concentration), kidney",[2]; 1 mg/kg,1.87 ± 0.14 µg/g
same,"Extraction (tissue drug concentration), liver",[2]; 1 mg/kg,13.2 ± 0.91 µg/g
same,"Extraction (tissue drug concentration), kidney",[2]; 2 mg/kg,3.56 ± 0.11 µg/g
same,"Extraction (tissue drug concentration), liver",[2]; 2 mg/kg,27.2 ± 2.5 µg/g
same,"Extraction (tissue drug concentration), kidney",[2]; 4 mg/kg,5.49 ± 0.54 µg/g
same,"Extraction (tissue drug concentration), liver",[2]; 4 mg/kg,59.2 ± 8.9 µg/g
same,"Net Ratio, kidney",[3]; 1 mg/kg,1.73 ± 0.42
same,"Net Ratio, liver",[3]; 1 mg/kg,17.8 ± 2.15
same,"Net Ratio, kidney",[3]; 2 mg/kg,2.48 ± 0.14
same,"Net Ratio, liver",[3]; 2 mg/kg,30.0 ± 5.5
same,"Net Ratio, kidney",[3]; 4 mg/kg,4.24 ± 0.90
same,"Net Ratio, liver",[3]; 4 mg/kg,50.1 ± 12.8
same,response to red light exposure,skin cancers [4],gave a response correlating to the magnitude of the ratio signal
